Measured values published in US5942503A, “Use of Epinastine for the treatment of pain” (Boehringer Indelheim KG, priority 1995, dated 1999).
Several values for one entry are separate records, joined by “and”; a condition that tells them apart may be missing. Identical values can stand only once. Counter-ions that a name gives are not always drawn. Like-named read-outs stand apart in the source and are kept apart here.

Tests used:
Male Wistar rats = system: Male Wistar rats
Description: Male Wistar rats weighing 175-190 g were anaesthetised with nembutal 50 mg/kg i.p. and the jugular vein was cannulated for injection of drugs. The animals were placed in a stereotaxic frame. Symmetrical boreholes were drilled 3.0 mm laterally and 3.2 mm posteriorly from bregma and the electrodes were lowered 9.5 mm from dura mater. The test compound epinastine or control solution were administered intravenously 10 min prior to electrical stimulation of the right trigeminal ganglion (5 min; 2.0 mA, 5 Hz, 5 ms duration and Evans blue (30 mg/kg i.v.), was given 5 min prior to electrical stimulation as a marker of plasma protein extravasation. 15 minutes after the end of the stimulation period the animals were perfused with 50 ml saline via the left cardiac ventricle to remove intravascular Evans blue. The dura mater was removed, blotted dry and weighed. Tissue Evans blue was extracted in 0.3 ml formamide at 50° C. for 24 h. Dye concentrations were measured with a spectrophotometer at 620 nm wavelength, interpolated on a standard curve and expressed as ng Evans blue content per mg tissue weight.
Extravasation was expressed as the quotient calculated by dividing the Evan's blue content of the stimulated side by the Evan's blue content of the unstimulated side. Results are expressed as means.

[1] = system: rats of the strain Chbb:THOM; assay: animal or person; conditions: for Mean value of pain threshold: 3 hours after yeast
Description: The method of Randall and Selitto was modified through use of the Analgesia meter by Basile of Milan.
Groups of 10 fasted rats of the strain Chbb:THOM (weight 110-140 g, 5 male 5 female) were dosed orally with it Natrosol 250 HX, 1 ml/100 g body weight, containing 0, 0.3, 1.0, 3.0 or 10 mg/kg epinastine (racemic mixture). 1 hour later the rats were injected subplantar with a suspension of yeast cells in a volume 0.1 ml into the right hind paw. 3 hours after injection of the yeast suspension, the pain threshold was determined by increasing the pressure on the inflamed paw until a sign of pain was produced. From the pain threshold measured after the different doses of the epinastine, linear regression analysis was used to determine an ED50.

rat 5HT7 receptor = target: T1, rat 5HT7 receptor (Rattus norvegicus, UniProt P32305); assay: Binding of [3H] LSD to rat 5HT7 receptor expressed in CHO cells
T1 construct: expressed in transfected cells; host or cells: CHO cells
Description: Binding of 2.0 nM [^3 H] LSD to a rat 5HT7 receptor expressed in CHO cells was measured for 60 minutes at 37° C. in 50 mM Tris-HCl buffer, pH 7.4, containing 10 mM MgCl2 and 0.5 mM EDTA. The reaction was terminated by rapid vacuum filtration onto glass fiber filters pretreated with 0.1% polyethyleneimine. Binding studies were made in duplicate in the absence of the drug and in the presence of between 6 and 8 concentrations of epinastine between 3 nM and 10 μM. Radioactivity trapped on the filters in the presence of each drug concentration was measured and compared with control values in order to ascertain interaction of the drug with the cloned 5-HT7 receptor site. Non-specific binding was determined in the presence of 5-carboxamidotryptamine (5-CT). The IC50 for the displacement of radiolabelled ligand was determined by graphical extrapolation and Ki values were calculated after correction for the radioligand occupancy shift by the Cheng and Prusoff equation (see Biochem. Pharmacol. 22, (1973): 3099-3108). Three experiments were carried out.

[2] = individual values of the three experiments, read-out: Measured Ki values
[3] = mean of three experiments, 2.0 nM [3H] LSD, 60 minutes at 37° C., read-out: mean Ki value

T1 sequence (P32305 whole entry): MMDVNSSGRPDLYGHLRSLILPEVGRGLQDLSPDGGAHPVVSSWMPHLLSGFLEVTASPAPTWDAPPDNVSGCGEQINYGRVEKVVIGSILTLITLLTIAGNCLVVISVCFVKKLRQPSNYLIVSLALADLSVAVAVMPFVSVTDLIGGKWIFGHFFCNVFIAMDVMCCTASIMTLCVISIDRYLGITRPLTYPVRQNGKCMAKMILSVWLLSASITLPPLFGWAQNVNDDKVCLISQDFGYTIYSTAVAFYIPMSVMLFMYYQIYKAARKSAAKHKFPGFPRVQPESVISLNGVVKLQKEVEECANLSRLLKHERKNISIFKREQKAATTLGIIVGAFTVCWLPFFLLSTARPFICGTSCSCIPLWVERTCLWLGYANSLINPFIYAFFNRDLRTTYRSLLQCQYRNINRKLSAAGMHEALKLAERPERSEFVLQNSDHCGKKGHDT

For `NC1=NCC2c3ccccc3Cc3ccccc3N12` (racemic) [Epinastine, 3-amino-9,13b-dihydro-1H-dibenz[c,f]-imidazo[5,1-a]azepine hydrochloride], the “Quotient stimulated/non-stimulated side, mean” value (Male Wistar rats; epinastine 10 μg/kg i.v., mean of 7 animals (control mean 1.25)) was 0.98, the “Evans blue extravasation induced by electrical stimulation of the trigeminal ganglion” value (Male Wistar rats; result in words) was “significantly reduced” and the “% Increase of pain threshold” value ([1]; 0.3 mg/kg p.o.) was 9.6%. The “Mean value of pain threshold” value ([1]; 0.3 mg/kg p.o.) was 164.8 g/hind paw, the “% Increase of pain threshold” value ([1]; 1.0 mg/kg p.o.) was 56.4% and the “Mean value of pain threshold” value ([1]; 1.0 mg/kg p.o.) was 235.2 g/hind paw. For the same compound, the “% Increase of pain threshold” value ([1]; 3.0 mg/kg p.o.) was 72.5%, the “Mean value of pain threshold” value ([1]; 3.0 mg/kg p.o.) was 259.4 g/hind paw and the “% Increase of pain threshold” value ([1]; 10.0 mg/kg p.o.) was 81.4%. The “Mean value of pain threshold” value ([1]; 10.0 mg/kg p.o.) was 272.8 g/hind paw, the ED50 ([1]; Rattus norvegicus, po, read-out: ED50, dose required to increase the pain threshold by 50%) was 1.1 mg/kg and the “pain threshold in inflamed rat paw” value ([1]; result in words) was “increased the pain threshold”. For the same compound, the Ki (rat 5HT7 receptor; Measured Ki values, individual values of the three experiments) was 27 nM and 41 nM and 30 nM and the Ki (rat 5HT7 receptor; mean Ki value, mean of three experiments, 2.0 nM [3H] LSD, 60 minutes at 37° C.) was 33 nM.
For `CN1CCC(=C2c3ccccc3CC(=O)c3sccc32)CC1` [Ketotifen], the Ki (rat 5HT7 receptor; [2]) was 406 nM and 572 nM and 331 nM.
With `COc1ccc(CN(CCN(C)C)c2ccccn2)cc1` [Mepyramine] the Ki (rat 5HT7 receptor; [2]) was 2660 nM and 747 nM and 1330 nM.
`NC1=NCC2c3ccccc3Cc3ccccc3N12` (single isomer, unassigned; (+)) [Epinastine (+) Enantiomer, (+)-3-Amino-9,13b-dihydro-1H-dibenz-[c,f]-imidazo[1,5a]-azepine-hydrochloride] was tested, and the Ki (rat 5HT7 receptor; [2]) was 45 nM and 18 nM and 22 nM and the Ki (rat 5HT7 receptor; [3]) was 28 nM.
For `NC1=NCC2c3ccccc3Cc3ccccc3N12` (single isomer, unassigned; (-)) [Epinastine (-) Enantiomer, (-)-3-Amino-9,13b-dihydro-1H-dibenz-[c,f]-imidazo[1,5a]-azepine-hydrochloride], the Ki (rat 5HT7 receptor; [2]) was 155 nM and 204 nM and 207 nM and the Ki (rat 5HT7 receptor; [3]) was 189 nM.
